Here are results for 30 molecules from US9024027B2, “Derivatives of 1-phenyl-2-pyridinyl alkyl alcohols as phosphodiesterase inhibitors” (Chiesi Farmaceutici S.p.A., priority 2011, dated 2015).

Structures are written as SMILES. Where only a bound is given, the exact number is not on record here.

For the assay, the system named is LPS-induced TNF-α release in peripheral blood mononuclear cells (PBMCs). As to the kind of experiment: In vitro determination of PDE4 inhibitory activity in the PBMCs assay (LPS-induced TNF-α release). The format is cell-based. Particulars: PBMC; human PBMCs, LPS 3 ng/ml, 18 hours; read-out: PDE4 inhibition (IC50, 50% inhibition of LPS-induced TNF-α release). As for the experimental part:
The assay, which is based on the known inhibitory activity exerted by PDE4 inhibitors on the lipopolyshaccarides (LPS)-induced tumour necrosis factor-alpha (TNF-α release in peripheral blood mononuclear cells (PBMCs), was performed according to a method previously described (Hatzelmann A et al., J. Pharmacol. Exp. Ther., 2001; 297:267-279; and Draheim R et al., J. Pharmacol. Exp. Ther., 2004; 308:555-563, both of which are incorporated herein by reference in their entireties. Cryopreserved human PBMCs, (100 μl/well) were incubated in 96-well plates (10^5 cells/well), for 30 minutes, in the presence or absence (50 microl) of the test compounds whose concentrations ranged from 10^−12 M to 10^−6 M or from 10^−13 M to 10^−7 M. Subsequently, LPS (3 ng/ml) was added. After 18 hours of incubation at 37° C. in a humidified incubator under an atmosphere of 95% air and 5% CO2, culture medium was collected and TNF-α measured by ELISA.
The results of the tested compounds, representatives of the invention, expressed as mean±95% confidence limits of the molar concentration of the test compound producing 50% inhibition of LPS-induced TNF-α release (IC50) are shown in the following Table: […]
For `Nc1ccc2c(c1)C(=O)N(CC(=O)O[C@@H](Cc1c(Cl)c[n+]([O-])cc1Cl)c1ccc(OC(F)F)c(OCC3CC3)c1)C2` [Compound 9, (S)-4-(2-(2-(6-amino-1-oxoisoindolin-2-yl)acetoxy)-2-(3-(cyclopropylmethoxy)-4-(difluoromethoxy)phenyl)ethyl)-3,5-dichloropyridine 1-oxide], the IC50 lay in the range of 1 to 10 nM.
Consider `CS(=O)(=O)Nc1ccc2c(c1)C(=O)N(CC(=O)O[C@@H](Cc1c(Cl)c[n+]([O-])cc1Cl)c1ccc(OC(F)F)c(OCC3CC3)c1)C2` [Compound 10, (S)-3,5-dichloro-4-(2-(3-(cyclopropylmethoxy)-4-(difluoromethoxy)phenyl)-2-(2-(6-(methylsulfonamido)-1-oxoisoindolin-2-yl)acetoxy)ethyl)pyridine 1-oxide], for which the IC50 fell in the range of 1 to 10 nM.
`Nc1cccc2c1C(=O)N(CC(=O)O[C@@H](Cc1c(Cl)c[n+]([O-])cc1Cl)c1ccc(OC(F)F)c(OCC3CC3)c1)C2=O` [Compound 12, (S)-4-(2-(2-(4-amino-1,3-dioxoisoindolin-2-yl)acetoxy)-2-(3-(cyclopropylmethoxy)-4-(difluoromethoxy)phenyl)ethyl)-3,5-dichloropyridine 1-oxide]: the IC50 was less than 1 nM.
With `O=C(Cn1ccc2ccccc21)O[C@@H](Cc1c(Cl)c[n+]([O-])cc1Cl)c1ccc(OC(F)F)c(OCC2CC2)c1` [Compound 14, (S)-4-(2-(2-(1H-indol-1-yl)acetoxy)-2-(3-(cyclopropylmethoxy)-4-(difluoromethoxy)phenyl)ethyl)-3,5-dichloropyridine 1-oxide], the concentration for half-maximal inhibition (IC50) was less than 1 nM.
In the case of `CSCCC(C(=O)OC(Cc1c(Cl)c[n+]([O-])cc1Cl)c1ccc(OC(F)F)c(OCC2CC2)c1)N1C(=O)c2ccccc2C1=O` (stereo not drawn) [Compound 15], the IC50 is less than 1 nM.
With `CC(C(=O)OC(Cc1c(Cl)c[n+]([O-])cc1Cl)c1ccc(OC(F)F)c(OCC2CC2)c1)N1C(=O)c2ccccc2C1=O` (stereo not drawn) [Compound 18], the IC50 is less than 1 nM.
In the case of `O=C(CN1C(=O)c2cc(Cl)c(Cl)cc2C1=O)O[C@@H](Cc1c(Cl)c[n+]([O-])cc1Cl)c1ccc(OC(F)F)c(OCC2CC2)c1` [Compound 19], the half-inhibitory concentration (IC50) is less than 1 nM.
Turning to `Cn1cnc2c1c(=O)n(CC(=O)O[C@@H](Cc1c(Cl)c[n+]([O-])cc1Cl)c1ccc(OC(F)F)c(OCC3CC3)c1)c(=O)n2C` [Compound 20], the IC50 is less than 1 nM.
The same measure for `O=C(Cn1cnc2ccccc21)O[C@@H](Cc1c(Cl)c[n+]([O-])cc1Cl)c1ccc(OC(F)F)c(OCC2CC2)c1` [Compound 22]: 1 to 10 nM; for `O=C(CN1C(=O)C(=O)c2ccccc21)O[C@@H](Cc1c(Cl)c[n+]([O-])cc1Cl)c1ccc(OC(F)F)c(OCC2CC2)c1` [Compound 25]: less than 1 nM; for `O=C(CN1C(=O)C(=O)c2cc([N+](=O)[O-])ccc21)O[C@@H](Cc1c(Cl)c[n+]([O-])cc1Cl)c1ccc(OC(F)F)c(OCC2CC2)c1` [Compound 26]: greater than 10 nM.
As for `O=C(CN1C(=O)c2ccccc2C1=O)O[C@H](Cc1c(Cl)c[n+]([O-])cc1Cl)c1ccc(OC(F)F)c(OCC2CC2)c1` [Compound 29], the IC50 is greater than 10 nM.
As for `O=C(Cn1c(=O)[nH]c2ccccc2c1=O)O[C@@H](Cc1c(Cl)c[n+]([O-])cc1Cl)c1ccc(OC(F)F)c(OCC2CC2)c1` [Compound 30], the IC50 was less than 1 nM.
For the molecule `CC1(C)c2ccccc2S(=O)(=O)N1CC(=O)O[C@@H](Cc1c(Cl)c[n+]([O-])cc1Cl)c1ccc(OC(F)F)c(OCC2CC2)c1` [Compound 35, (S)-3,5-dichloro-4-(2-(3-(cyclopropylmethoxy)-4-(difluoromethoxy)phenyl)-2-(2-(3,3-dimethyl-1,1-dioxidobenzo[d]isothiazol-2(3H)-yl)acetoxy)ethyl)pyridine 1-oxide], the half-inhibitory concentration (IC50) lay in the range of 1 to 10 nM.
Consider `O=C(Cn1c(=O)c(=O)n(CCN2CCOCC2)c2ccccc21)O[C@@H](Cc1c(Cl)c[n+]([O-])cc1Cl)c1ccc(OC(F)F)c(OCC2CC2)c1` [Compound 37, (S)-3,5-dichloro-4-(2-(3-(cyclopropylmethoxy)-4-(difluoromethoxy)phenyl)-2-(2-(4-(2-morpholinoethyl)-2,3-dioxo-3,4-dihydroquinoxalin-1(2H)-yl)acetoxy)ethyl)pyridine 1-oxide], for which the IC50 was less than 1 nM.
The same measure for `O=C(Cn1c(=O)n(CCN2CCOCC2)c(=O)c2ccccc21)O[C@@H](Cc1c(Cl)c[n+]([O-])cc1Cl)c1ccc(OC(F)F)c(OCC2CC2)c1` [Compound 38]: less than 1 nM.
With `O=C(Cn1c(=O)c2ccccc2n(CCN2CCOCC2)c1=O)O[C@@H](Cc1c(Cl)c[n+]([O-])cc1Cl)c1ccc(OC(F)F)c(OCC2CC2)c1` [Compound 39], the IC50 is less than 1 nM.
In the case of `O=C(Cn1c(=O)c2ccccc2c(=O)n1CCN1CCOCC1)O[C@@H](Cc1c(Cl)c[n+]([O-])cc1Cl)c1ccc(OC(F)F)c(OCC2CC2)c1` [Compound 40], the IC50 was in the range of 1 to 10 nM.
For the molecule `O=C(Cn1ccc2cc(O)ccc21)O[C@@H](Cc1c(Cl)c[n+]([O-])cc1Cl)c1ccc(OC(F)F)c(OCC2CC2)c1` [Compound 42, (S)-3,5-dichloro-4-(2-(3-(cyclopropylmethoxy)-4-(difluoromethoxy)phenyl)-2-(2-(5-hydroxy-1H-indol-1-yl)acetoxy)ethyl)pyridine 1-oxide], the IC50 is less than 1 nM.
Consider `COc1ccc2c(ccn2CC(=O)O[C@@H](Cc2c(Cl)c[n+]([O-])cc2Cl)c2ccc(OC(F)F)c(OCC3CC3)c2)c1` [Compound 45, (S)-3,5-dichloro-4-(2-(3-(cyclopropylmethoxy)-4-(difluoromethoxy)phenyl)-2-(2-(5-methoxy-1H-indol-1-yl)acetoxy)ethyl)pyridine 1-oxide], for which the IC50 was less than 1 nM.
`COc1cc2ccn(CC(=O)O[C@@H](Cc3c(Cl)c[n+]([O-])cc3Cl)c3ccc(OC(F)F)c(OCC4CC4)c3)c2cc1OC` [Compound 54]: the IC50 lay in the range of 1 to 10 nM.
For `COc1ccc2c(c1)C(=O)C(=O)N2CC(=O)O[C@@H](Cc1c(Cl)c[n+]([O-])cc1Cl)c1ccc(OC(F)F)c(OCC2CC2)c1` [Compound 57, (S)-3,5-dichloro-4-(2-(3-(cyclopropylmethoxy)-4-(difluoromethoxy)phenyl)-2-(2-(5-methoxy-2,3-dioxoindolin-1-yl)acetoxy)ethyl)-pyridine 1-oxide], the IC50 was less than 1 nM.
As to `O=C(Cn1ccc2cccnc21)O[C@@H](Cc1c(Cl)c[n+]([O-])cc1Cl)c1ccc(OC(F)F)c(OCC2CC2)c1` [Compound 60], the concentration for half-maximal inhibition (IC50) was 1 to 10 nM.
Regarding `O=C(Cn1ccc2cnccc21)O[C@@H](Cc1c(Cl)c[n+]([O-])cc1Cl)c1ccc(OC(F)F)c(OCC2CC2)c1` [Compound 61], the 50% inhibitory concentration (IC50) lay within 1 to 10 nM.
Turning to `COc1ccc2c(c1)N(CC(=O)O[C@@H](Cc1c(Cl)c[n+]([O-])cc1Cl)c1ccc(OC(F)F)c(OCC3CC3)c1)C(=O)C2=O` [Compound 64, (S)-3,5-dichloro-4-(2-(3-(cyclopropylmethoxy)-4-(difluoromethoxy)phenyl)-2-(2-(6-methoxy-2,3-dioxoindolin-1-yl)acetoxy)ethyl)-pyridine 1-oxide], the half-inhibitory concentration (IC50) was less than 1 nM.
Next, `COc1cccc2c1C(=O)N(CC(=O)O[C@@H](Cc1c(Cl)c[n+]([O-])cc1Cl)c1ccc(OC(F)F)c(OCC3CC3)c1)C2=O` [Compound 68, (S)-3,5-dichloro-4-(2-(3-(cyclopropylmethoxy)-4-(difluoromethoxy)phenyl)-2-(2-(4-methoxy-1,3-dioxoisoindolin-2-yl)acetoxy)-ethyl)pyridine 1-oxide]: less than 1 nM; `CS(=O)(=O)Nc1ccc2c(ccn2CC(=O)O[C@@H](Cc2c(Cl)c[n+]([O-])cc2Cl)c2ccc(OC(F)F)c(OCC3CC3)c2)c1` [Compound 76, (S)-3,5-dichloro-4-(2-(3-(cyclopropylmethoxy)-4-(difluoromethoxy)phenyl)-2-(2-(5-(methylsulfonamido)-1H-indol-1-yl)acetoxy)-ethyl)pyridine 1-oxide]: less than 1 nM; `CS(=O)(=O)Nc1cccc2c1ccn2CC(=O)O[C@@H](Cc1c(Cl)c[n+]([O-])cc1Cl)c1ccc(OC(F)F)c(OCC2CC2)c1` [Compound 84, (S)-3,5-dichloro-4-(2-(3-(cyclopropylmethoxy)-4-(difluoromethoxy)phenyl)-2-(2-(4-(methylsulfonamido)-1H-indol-1-yl)acetoxy)-ethyl)pyridine 1-oxide]: less than 1 nM.
Next, `CS(=O)(=O)Nc1cn(CC(=O)O[C@@H](Cc2c(Cl)c[n+]([O-])cc2Cl)c2ccc(OC(F)F)c(OCC3CC3)c2)c2ccccc12` [Compound 93, (S)-3,5-dichloro-4-(2-(3-(cyclopropylmethoxy)-4-(difluoromethoxy)phenyl)-2-(2-(3-(methylsulfonamido)-1H-indol-1-yl)acetoxy)ethyl)pyridine 1-oxide]: 1 to 10 nM; `CS(=O)(=O)Nc1ccc2c(c1)C(=O)C(=O)N2CC(=O)O[C@@H](Cc1c(Cl)c[n+]([O-])cc1Cl)c1ccc(OC(F)F)c(OCC2CC2)c1` [Compound 99, (S)-3,5-dichloro-4-(2-(3-(cyclopropylmethoxy)-4-(difluoromethoxy)phenyl)-2-(2-(5-(methylsulfonamido)-2,3-dioxoindolin-1-yl)acetoxy)ethyl)pyridine 1-oxide]: 1 to 10 nM.
